In one assay the target is Histone deacetylase. The class given is subcellular, Homo sapiens, Nucleus. As to conditions: hela.
Assay [1] addresses T1, Histone deacetylase 1 (Homo sapiens, UniProt Q13547). As to the kind of experiment: Inhibition of HDAC1 (unknown origin) at 10 uM using fluorogenic peptide as substrate pre-incubated for 15 mins followed by substrate addition incubated for 30 mins by fluorescence assay relative to control. The note with it: time 45.0 min.
In assay [2] the target is T2, Protein deacetylase HDAC6 (Homo sapiens) (UniProt Q9UBN7).
T2 sequence (whole entry): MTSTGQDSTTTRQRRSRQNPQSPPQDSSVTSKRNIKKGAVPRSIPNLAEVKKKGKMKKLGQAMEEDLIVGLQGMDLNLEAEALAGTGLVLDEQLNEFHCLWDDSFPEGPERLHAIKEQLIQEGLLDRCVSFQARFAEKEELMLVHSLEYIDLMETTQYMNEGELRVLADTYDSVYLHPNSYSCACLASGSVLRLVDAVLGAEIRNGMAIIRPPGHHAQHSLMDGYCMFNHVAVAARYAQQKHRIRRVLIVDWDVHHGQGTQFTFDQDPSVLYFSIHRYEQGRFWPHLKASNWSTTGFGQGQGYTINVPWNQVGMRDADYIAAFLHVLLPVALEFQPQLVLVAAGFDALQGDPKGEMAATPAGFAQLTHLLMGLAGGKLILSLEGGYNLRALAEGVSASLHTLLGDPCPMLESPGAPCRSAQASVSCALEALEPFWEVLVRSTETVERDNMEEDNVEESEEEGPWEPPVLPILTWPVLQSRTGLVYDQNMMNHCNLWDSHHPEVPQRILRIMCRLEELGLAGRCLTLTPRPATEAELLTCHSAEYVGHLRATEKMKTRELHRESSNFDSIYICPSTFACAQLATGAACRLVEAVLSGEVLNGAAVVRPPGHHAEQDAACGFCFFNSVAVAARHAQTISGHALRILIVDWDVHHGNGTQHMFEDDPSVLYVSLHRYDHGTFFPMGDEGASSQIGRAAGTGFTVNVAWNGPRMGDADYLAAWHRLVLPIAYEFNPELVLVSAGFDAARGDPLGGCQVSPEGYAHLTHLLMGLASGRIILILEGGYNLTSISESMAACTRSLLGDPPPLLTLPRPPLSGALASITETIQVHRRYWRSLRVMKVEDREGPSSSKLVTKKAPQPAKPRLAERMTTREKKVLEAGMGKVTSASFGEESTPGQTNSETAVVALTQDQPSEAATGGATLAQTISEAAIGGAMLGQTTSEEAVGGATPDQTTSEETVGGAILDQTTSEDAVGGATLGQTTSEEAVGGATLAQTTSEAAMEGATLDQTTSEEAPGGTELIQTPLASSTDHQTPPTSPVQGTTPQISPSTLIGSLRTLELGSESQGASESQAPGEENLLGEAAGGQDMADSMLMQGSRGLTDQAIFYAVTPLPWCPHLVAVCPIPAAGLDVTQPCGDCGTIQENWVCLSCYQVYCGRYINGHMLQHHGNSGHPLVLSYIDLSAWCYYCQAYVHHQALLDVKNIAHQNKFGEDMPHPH
In words: Inhibition of HDAC6 (unknown origin) at 10 uM using fluorogenic peptide as substrate pre-incubated for 15 mins followed by substrate addition incubated for 30 mins by fluorescence assay. As to conditions: time 45.0 min.

Assay [3] concerns the target T3, Protein deacetylase HDAC6 (Homo sapiens, UniProt Q9UBN7).
T3 sequence (Q9UBN7 whole entry): T2 sequence (whole entry)
As to the kind of experiment: Inhibition of HDAC6 (unknown origin) using fluorogenic peptide as the substrate containing residues 379-382 of p53at 10 uM pre-incubated for 15 mins followed by substrate addition incubated for 30 mins by multimode plate reader.

The target in assay [4] is T1, Histone deacetylase 1. As to the kind of experiment: Inhibition of HDAC1 (unknown origin) using fluorogenic peptide as the substrate containing residues 379-382 of p53 pre-incubated for 15 mins followed by substrate addition incubated for 30 mins by multimode plate reader.
In assay [5] the test system is U-937. As to the kind of experiment: Cytotoxicity against human U-937 cells assessed as cell death at 1 to 5 uM incubated for 24 hrs by PI staining based FACS analysis relative to control. It counts as functional. The note with it: dose 1-5 µM. (Flow cytometry measures light scatter and fluorescence of single cells or particles in a stream.)
For assay [6], the system named is U-937. As to the kind of experiment: Induction of cell cycle arrest in human U-937 assessed as increase accumulation of cells in G2/M phase at 1 to 5 uM incubated for 24 hrs by FACS analysis. As to conditions: dose 1-5 µM. The class given is functional, cell-based.
For assay [7], the system named is HCT-116. As to the kind of experiment: Induction of cell cycle arrest in human HCT-116 assessed as accumulation of cells in G2/M phase at 1 to 5 uM incubated for 24 hrs by FACS analysis relative to SAHA. It counts as functional. As to conditions: dose 1-5 µM.
The target of assay [8] is T4, Histone deacetylase (Homo sapiens) (UniProt Q13547+O15379+Q9UBN7+Q92769+Q9UQL6+Q8WUI4+Q9BY41+Q96DB2+P56524+Q9UKV0+Q969S8). As to the kind of experiment: Inhibition of HDAC in human U-937 cells assessed as upregulation of histone H3 acetylation at lysine 14 residue at 1 uM incubated for 24 hrs by immunoblotting analysis. The class given is cell-based. (In western blotting, separated proteins are transferred to a membrane and probed.)

For assay [9], the target named is T4, Histone deacetylase (Homo sapiens). In words: Inhibition of HDAC in human U-937 cells assessed as upregulation of histone H3 acetylation at lysine 14 residue at 5 uM incubated for 24 hrs by immunoblotting analysis. The class given is cell-based.
Assay [10] shares this target. As to the kind of experiment: Inhibition of HDAC in human HCT-116 cells assessed as upregulation of histone H3 acetylation at lysine 14 residue at 1 uM incubated for 24 hrs by immunoblotting analysis. It counts as cell-based.
The target is the same in assay [11]. As to the kind of experiment: Inhibition of HDAC in human U-937 cells assessed as upregulation of acetyl alpha-tubulin level at 5 uM incubated for 24 hrs by immunoblotting analysis. The class given is cell-based.
The target is the same in assay [12]. As to the kind of experiment: Inhibition of HDAC in human HCT-116 cells assessed as upregulation of acetyl alpha-tubulin level at 1 to 5 uM incubated for 24 hrs by immunoblotting analysis. The class given is cell-based. As to conditions: dose 1-5 µM.
Assay [13] deals with HCT-116. As to the kind of experiment: Induction of apoptosis in human HCT-116 cells assessed as increased p21 protein expression level at 1 to 5 uM incubated for 24 hrs by immunoblotting analysis. It counts as functional, cell-based. The note with it: dose 1-5 µM.
Assay [14] has as its system U-937. In words: Induction of apoptosis in human U-937 cells assessed as increased p21 protein expression level at 1 to 5 uM incubated for 24 hrs by immunoblotting analysis. It counts as functional, cell-based. As to conditions: dose 1-5 µM.
The subject of assay [15] is U-937. In words: Cytotoxicity against human U-937 cells assessed as cell viability incubated for 24 hrs by MTT assay. It counts as functional, cell-based. The note with it: U-937, 24 h. For orientation: Tetrazolium assays rely on reduction of a dye to a coloured formazan, in cell work by metabolically active cells.
Assay [16] concerns HCT-116. In words: Cytotoxicity against human HCT-116 cells assessed as cell viability incubated for 24 hrs by MTT assay. The class given is functional, cell-based. The note with it: HCT-116, 24 h.
The subject of assay [17] is U-937. As to the kind of experiment: Induction of cell cycle arrest in human U-937 assessed as decrease accumulation of cells in G1 phase at 1 to 5 uM incubated for 24 hrs by FACS analysis. The class given is functional, cell-based. As to conditions: dose 1-5 µM.
Assay [18] concerns HCT-116. As to the kind of experiment: Induction of cell cycle arrest in human HCT-116 assessed as decrease accumulation of cells in G1 phase at 1 to 5 uM incubated for 24 hrs by FACS analysis. It counts as functional, cell-based. The note with it: dose 1-5 µM.
Assay [19] has as its system U-937. In words: Induction of cell cycle arrest in human U-937 assessed as decrease accumulation of cells in S phase at 1 to 5 uM incubated for 24 hrs by FACS analysis. It counts as functional, cell-based. As to conditions: dose 1-5 µM.
The test system of assay [20] is HCT-116. In words: Induction of cell cycle arrest in human HCT-116 assessed as decrease accumulation of cells in S phase at 1 to 5 uM incubated for 24 hrs by FACS analysis. The class given is functional, cell-based. The note with it: dose 1-5 µM.
The target of assay [21] is Histone deacetylase 2 (Homo sapiens) (UniProt Q92769). In words: Inhibition of HDAC2 (unknown origin) at 10 uM using fluorogenic peptide as substrate pre-incubated for 15 mins followed by substrate addition incubated for 30 mins by fluorescence assay. The note with it: time 45.0 min.
Histone deacetylase 2 (Homo sapiens), sequence (Q92769 whole entry): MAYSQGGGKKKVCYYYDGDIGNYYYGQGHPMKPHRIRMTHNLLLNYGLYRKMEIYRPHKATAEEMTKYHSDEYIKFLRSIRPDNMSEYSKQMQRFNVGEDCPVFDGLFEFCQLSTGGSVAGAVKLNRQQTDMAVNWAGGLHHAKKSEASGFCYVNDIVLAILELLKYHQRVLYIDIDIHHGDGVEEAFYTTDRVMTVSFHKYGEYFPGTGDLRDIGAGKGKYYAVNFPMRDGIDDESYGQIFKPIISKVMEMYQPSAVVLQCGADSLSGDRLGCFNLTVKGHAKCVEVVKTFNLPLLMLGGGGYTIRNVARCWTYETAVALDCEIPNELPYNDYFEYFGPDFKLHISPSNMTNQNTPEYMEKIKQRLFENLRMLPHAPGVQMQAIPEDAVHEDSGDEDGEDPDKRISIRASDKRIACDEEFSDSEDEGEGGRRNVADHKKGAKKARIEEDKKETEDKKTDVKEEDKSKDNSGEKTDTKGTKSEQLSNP
Assay [22] concerns the target Histone deacetylase 3 (Homo sapiens) (UniProt O15379). As to the kind of experiment: Inhibition of HDAC3 (unknown origin) at 10 uM using fluorogenic peptide as substrate pre-incubated for 15 mins followed by substrate addition incubated for 30 mins by fluorescence assay. The note with it: time 45.0 min.
For assay [23], the target named is Histone deacetylase 4 (Homo sapiens) (UniProt P56524). In words: Inhibition of HDAC4 (unknown origin) at 10 uM using fluorogenic peptide as substrate pre-incubated for 15 mins followed by substrate addition incubated for 30 mins by fluorescence assay. As to conditions: time 45.0 min.
Histone deacetylase 4 (Homo sapiens), sequence (P56524 whole entry): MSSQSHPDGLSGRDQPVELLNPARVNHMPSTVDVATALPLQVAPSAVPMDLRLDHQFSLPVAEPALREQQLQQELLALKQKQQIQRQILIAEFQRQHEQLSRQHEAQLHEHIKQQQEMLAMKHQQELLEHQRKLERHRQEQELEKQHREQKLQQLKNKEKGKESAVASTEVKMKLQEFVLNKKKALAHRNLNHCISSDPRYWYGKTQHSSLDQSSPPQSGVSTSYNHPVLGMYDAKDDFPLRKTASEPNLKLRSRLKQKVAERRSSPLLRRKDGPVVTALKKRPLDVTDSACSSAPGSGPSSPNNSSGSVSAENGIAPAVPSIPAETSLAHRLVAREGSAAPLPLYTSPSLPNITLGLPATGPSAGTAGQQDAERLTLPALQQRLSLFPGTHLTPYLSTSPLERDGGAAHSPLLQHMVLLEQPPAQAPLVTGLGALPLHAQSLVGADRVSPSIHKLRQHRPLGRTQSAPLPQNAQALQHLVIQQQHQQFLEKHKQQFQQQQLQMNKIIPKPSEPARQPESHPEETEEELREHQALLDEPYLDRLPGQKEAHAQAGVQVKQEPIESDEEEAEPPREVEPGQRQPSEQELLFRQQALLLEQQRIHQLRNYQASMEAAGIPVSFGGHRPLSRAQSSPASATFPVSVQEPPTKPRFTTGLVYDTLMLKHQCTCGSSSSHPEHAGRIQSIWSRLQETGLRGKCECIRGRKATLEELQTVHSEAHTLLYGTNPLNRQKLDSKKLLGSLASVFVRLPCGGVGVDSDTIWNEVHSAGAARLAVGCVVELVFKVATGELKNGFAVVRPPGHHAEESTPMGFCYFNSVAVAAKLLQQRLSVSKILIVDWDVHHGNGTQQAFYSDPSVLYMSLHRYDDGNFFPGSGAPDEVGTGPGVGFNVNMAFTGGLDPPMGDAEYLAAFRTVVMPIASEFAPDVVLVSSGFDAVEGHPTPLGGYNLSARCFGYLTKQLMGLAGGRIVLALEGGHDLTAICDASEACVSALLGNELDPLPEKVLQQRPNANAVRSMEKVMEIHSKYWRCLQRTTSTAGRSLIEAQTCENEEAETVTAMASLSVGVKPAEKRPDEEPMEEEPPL
Assay [24] addresses T5, Histone deacetylase 8 (Homo sapiens) (UniProt Q9BY41).
T5 sequence (whole entry): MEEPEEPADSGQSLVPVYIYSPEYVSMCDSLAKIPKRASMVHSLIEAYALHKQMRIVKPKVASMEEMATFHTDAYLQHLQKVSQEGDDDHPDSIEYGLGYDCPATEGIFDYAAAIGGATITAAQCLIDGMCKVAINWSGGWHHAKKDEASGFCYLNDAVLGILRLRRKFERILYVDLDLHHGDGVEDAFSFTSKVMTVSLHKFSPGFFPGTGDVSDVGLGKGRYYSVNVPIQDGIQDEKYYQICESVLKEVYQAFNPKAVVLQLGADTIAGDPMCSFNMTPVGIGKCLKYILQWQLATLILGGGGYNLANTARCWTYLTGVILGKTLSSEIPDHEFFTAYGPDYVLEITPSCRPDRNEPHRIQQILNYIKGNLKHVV
As to the kind of experiment: Inhibition of HDAC8 (unknown origin) at 10 uM using fluorogenic peptide as substrate pre-incubated for 15 mins followed by substrate addition incubated for 30 mins by fluorescence assay. As to conditions: time 45.0 min.

Assay [25] deals with U-937. As to the kind of experiment: Cytotoxicity against human U-937 cells assessed as cell death at 5 uM incubated for 24 hrs by PI staining based FACS analysis relative to control. The class given is functional.
The subject of assay [26] is U-937. As to the kind of experiment: Cytotoxicity against human U-937 cells assessed as cell death at 1 uM incubated for 24 hrs by PI staining based FACS analysis relative to control. It counts as functional.
The subject of assay [27] is U-937. As to the kind of experiment: Induction of cell cycle arrest in human U-937 assessed as reduced accumulation of cells in S phase at 1 uM incubated for 24 hrs by FACS analysis. The class given is functional, cell-based.
In assay [28] the test system is U-937. As to the kind of experiment: Induction of cell cycle arrest in human U-937 assessed as decrease accumulation of cells in G1 phase at 5 uM incubated for 24 hrs by FACS analysis. The class given is functional, cell-based.

As a reminder, the IC50 is the concentration at which inhibition is half-maximal. As a reminder, the inhibition is the drop in the measured response relative to a control, in per cent. A lower inhibition goes with little suppression.

The source made the active and inactive calls. No cut-off for these calls is given here.

T1 sequence (Q13547 whole entry): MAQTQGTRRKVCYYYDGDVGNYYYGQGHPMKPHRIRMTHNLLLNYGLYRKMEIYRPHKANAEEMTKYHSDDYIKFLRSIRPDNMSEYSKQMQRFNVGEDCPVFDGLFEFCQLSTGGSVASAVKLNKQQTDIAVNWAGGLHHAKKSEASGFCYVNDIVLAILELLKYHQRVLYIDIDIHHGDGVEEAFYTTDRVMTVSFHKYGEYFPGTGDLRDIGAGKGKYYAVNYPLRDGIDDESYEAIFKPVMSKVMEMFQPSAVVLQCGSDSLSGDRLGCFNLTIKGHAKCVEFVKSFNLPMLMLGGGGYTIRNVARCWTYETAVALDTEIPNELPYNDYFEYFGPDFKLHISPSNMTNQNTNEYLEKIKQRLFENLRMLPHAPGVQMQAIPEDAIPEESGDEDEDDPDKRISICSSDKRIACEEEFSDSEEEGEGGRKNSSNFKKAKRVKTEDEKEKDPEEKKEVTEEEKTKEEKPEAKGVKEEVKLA
Histone deacetylase 3 (Homo sapiens), sequence (O15379 whole entry): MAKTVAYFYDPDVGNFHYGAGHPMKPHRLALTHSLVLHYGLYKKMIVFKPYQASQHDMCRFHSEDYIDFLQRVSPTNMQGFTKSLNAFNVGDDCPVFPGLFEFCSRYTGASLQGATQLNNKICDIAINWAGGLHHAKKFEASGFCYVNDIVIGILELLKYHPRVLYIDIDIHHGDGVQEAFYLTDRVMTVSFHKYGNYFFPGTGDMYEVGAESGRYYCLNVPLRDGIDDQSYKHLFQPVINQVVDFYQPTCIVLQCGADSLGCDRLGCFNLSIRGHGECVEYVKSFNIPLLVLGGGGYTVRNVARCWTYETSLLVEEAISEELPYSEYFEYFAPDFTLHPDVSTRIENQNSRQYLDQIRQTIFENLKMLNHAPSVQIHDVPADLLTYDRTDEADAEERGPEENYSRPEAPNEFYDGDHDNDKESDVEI

In the case of `O=C(CCCCCN1C(=O)CC(c2ccc(Cl)c(Cl)c2)S(=O)(=O)c2ccccc21)NO` (racemic), the half-inhibitory concentration (IC50) at Histone deacetylase was 27.1 nM; in assay [3] it was 12.3 nM; against Histone deacetylase 1 [4], 88.2 nM; with U-937 [15], 13900 nM; with HCT-116 [16], 18500 nM. The results for the inhibition (against Histone deacetylase 1 [1]; in assay [2]) were 96.9% and 99.5%, respectively. Further, the Activity with U-937 [5] is given as approximately 6%. Further, the outcome (in the assay on U-937 [6]; in the assay on HCT-116 [7]; in assay [8]; in [9]; in assay [10]; in assay [11]) was Active. Also, the outcome (in assay [12]; in the assay on HCT-116 [13]; with U-937 [14]; in the assay on U-937 [17]; in the assay with HCT-116 [18]; in the assay with U-937 [19]) was Active. The result with HCT-116 [20] was Active.

Turning to `O=C(CCCCCN1C(=O)CC(c2ccccc2)S(=O)(=O)c2ccccc21)NO` (racemic), the IC50 was found to be 38.6 nM against Histone deacetylase, 23.2 nM in assay [3] and 115 nM against Histone deacetylase 1 [4]. For the same compound, the inhibition against Histone deacetylase 1 [1] was 99.1%; in assay [21], 100%; in assay [22], 99.3%; in assay [23], 51.4%; in [2], 98.8%; in assay [24], 87.3%. In addition, the Activity with U-937 [25] was approximately 12%; in the assay with U-937 [26] it was 12%; in the assay with HCT-116 [7] it was approximately 75%. In addition, the result (with U-937 [27]; with U-937 [6]; in the assay with U-937 [28]; in assay [8]; in [9]; in [10]) was Active. For the same compound, the result (in [11]; in assay [12]; in the assay on HCT-116 [13]; in the assay with U-937 [14]) was Active.

(Values after ChEMBL document CHEMBL5365438, “2-Substituted 1,5-benzothiazepine-based HDAC inhibitors exert anticancer activities on human solid and acute myeloid leukemia cell lines” (Bioorg Med Chem, 2023).)
